ChEMBL document CHEMBL1149947, “Identification and chemical synthesis of MDL 105,212, a non-peptide tachykinin antagonist with high affinity for NK1 and NK2 receptors” (Bioorg Med Chem Lett, 1996)
pIC50: −log10 of the molar value.

Legend:
Substance-K receptor = target: T1, Substance-K receptor (Homo sapiens, UniProt P21452); assay: Binding affinity against human NK2 receptors from HSKR-1 cells using [125I]-Iodohistidyl NKA; format: cell-based
T1 sequence (P21452 whole entry): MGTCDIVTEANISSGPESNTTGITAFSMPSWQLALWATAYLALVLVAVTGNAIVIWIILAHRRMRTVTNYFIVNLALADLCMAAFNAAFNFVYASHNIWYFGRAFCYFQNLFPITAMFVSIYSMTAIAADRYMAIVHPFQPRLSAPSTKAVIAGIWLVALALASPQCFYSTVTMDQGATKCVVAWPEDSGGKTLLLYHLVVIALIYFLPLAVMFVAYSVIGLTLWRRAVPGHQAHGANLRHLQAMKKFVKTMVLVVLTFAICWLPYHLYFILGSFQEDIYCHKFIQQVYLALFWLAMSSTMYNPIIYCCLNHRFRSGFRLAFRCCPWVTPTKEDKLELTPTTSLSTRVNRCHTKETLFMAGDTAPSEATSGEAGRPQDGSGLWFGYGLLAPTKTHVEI

Substance-P receptor = Substance-P receptor (Homo sapiens, UniProt P25103); assay: Binding affinity against Neurokinin 1(NK1) receptor from human IM-9 cells using [I]-Bolton Hunter labeled SP; format: cell-based
Substance-P receptor, sequence (P25103 whole entry): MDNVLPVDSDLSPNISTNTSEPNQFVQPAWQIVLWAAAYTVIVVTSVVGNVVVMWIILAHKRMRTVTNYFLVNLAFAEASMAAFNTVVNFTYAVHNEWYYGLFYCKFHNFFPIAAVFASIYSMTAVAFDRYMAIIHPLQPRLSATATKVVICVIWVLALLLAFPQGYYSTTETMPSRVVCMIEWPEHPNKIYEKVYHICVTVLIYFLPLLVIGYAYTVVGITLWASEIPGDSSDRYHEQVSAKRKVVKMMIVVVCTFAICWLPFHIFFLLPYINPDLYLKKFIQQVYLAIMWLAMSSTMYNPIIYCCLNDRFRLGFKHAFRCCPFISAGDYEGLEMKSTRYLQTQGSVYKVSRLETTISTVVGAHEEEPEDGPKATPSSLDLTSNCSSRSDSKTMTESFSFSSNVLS

Neuromedin-K receptor = target: T2, Neuromedin-K receptor (Cavia porcellus, UniProt P30098); assay: NK3 IC50 determined using [125I]bolton Hunter labeled eledoisin at NK3 receptors from guinea pig cerebral cortex; format: tissue-based
T2 sequence (P30098 whole entry): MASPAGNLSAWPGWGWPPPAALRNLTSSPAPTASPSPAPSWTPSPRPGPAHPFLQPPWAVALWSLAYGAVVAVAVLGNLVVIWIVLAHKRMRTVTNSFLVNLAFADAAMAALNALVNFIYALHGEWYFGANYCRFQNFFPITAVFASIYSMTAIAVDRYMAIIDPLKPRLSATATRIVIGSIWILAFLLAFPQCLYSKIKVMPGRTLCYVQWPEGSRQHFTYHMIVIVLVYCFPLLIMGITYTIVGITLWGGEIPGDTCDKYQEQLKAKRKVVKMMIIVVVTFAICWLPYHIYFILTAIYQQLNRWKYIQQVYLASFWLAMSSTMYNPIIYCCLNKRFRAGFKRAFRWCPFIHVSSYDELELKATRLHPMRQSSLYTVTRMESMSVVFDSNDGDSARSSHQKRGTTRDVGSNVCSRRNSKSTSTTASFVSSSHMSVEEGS

Row | Structure (SMILES) | pIC50 (Substance-K receptor) | pIC50 (Substance-P receptor) | pIC50 (Neuromedin-K receptor)
1 | COc1cc(CC(=O)N2CCC(CCN3CCC(C(N)=O)(c4ccccc4)CC3)(c3ccc(Cl)c(Cl)c3)C2)cc(OC)c1OC (configuration not stated) | 7.26 | 7.18 | 
2 | COc1ccccc1CC(=O)N1CCC(CCN2CCC(C(N)=O)(c3ccccc3)CC2)(c2ccc(Cl)c(Cl)c2)C1 (configuration not stated) |  | 7.32 | 
3 | COc1cccc(C(=O)N2CCC(CCN3CCC(C(N)=O)(c4ccccc4)CC3)(c3ccc(Cl)c(Cl)c3)C2)c1 (configuration not stated) | 7.92 | 6.97 | 
4 | COc1ccc(C(=O)N2CCC(CCN3CCC(C(N)=O)(c4ccccc4)CC3)(c3ccc(Cl)c(Cl)c3)C2)c(OC)c1 (configuration not stated) |  | 6.90 | 
5 | COc1ccccc1C(=O)N1CCC(CCN2CCC(C(N)=O)(c3ccccc3)CC2)(c2ccc(Cl)c(Cl)c2)C1 (configuration not stated) | 7.78 | 7.13 | 
6 | COc1cc(OC)cc(C(=O)N2CCC(CCN3CCC(C(N)=O)(c4ccccc4)CC3)(c3ccc(Cl)c(Cl)c3)C2)c1 (configuration not stated) | 7.72 | 7.16 | 
7 | COc1c(Br)cc(C(=O)N2CCC(CCN3CCC(C(N)=O)(c4ccccc4)CC3)(c3ccc(Cl)c(Cl)c3)C2)cc1Br (configuration not stated) | 8.39 | 6.50 | 
8 | CCOC(=O)Oc1c(OC)cc(C(=O)N2CCC(CCN3CCC(C(N)=O)(c4ccccc4)CC3)(c3ccc(Cl)c(Cl)c3)C2)cc1OC (configuration not stated) | 7.02 | 6.60 | 
9 | COc1c(C)cc(C(=O)N2CCC(CCN3CCC(C(N)=O)(c4ccccc4)CC3)(c3ccc(Cl)c(Cl)c3)C2)cc1C (configuration not stated) | 8.16 | 6.77 | 
10 | COc1cc(C(=O)N2CC[C@](CCN3CCC(C(N)=O)(c4ccccc4)CC3)(c3ccc(Cl)c(Cl)c3)C2)cc(OC)c1OC | 8.08 | 8.51 | 7.68
11 | NC(=O)C1(c2ccccc2)CCN(CCC2(c3ccc(Cl)c(Cl)c3)CCN(C(=O)c3ccccc3)C2)CC1 (configuration not stated) |  | 6.57 | 
12 | COc1cc(C(=O)N2CCC(CCN3CCC(C(N)=O)(c4ccccc4)CC3)(c3ccc(Cl)c(Cl)c3)C2)cc(OC)c1C (configuration not stated) | 7.87 | 7.19 | 
13 | COc1cccc(OC)c1C(=O)N1CCC(CCN2CCC(C(N)=O)(c3ccccc3)CC2)(c2ccc(Cl)c(Cl)c2)C1 (configuration not stated) | 7.27 | 7.64 | 
14 | COc1cc(C(=O)N2CCC(CCN3CCC(C(N)=O)(c4ccccc4)CC3)(c3ccc(Cl)c(Cl)c3)C2)cc(OC)c1OC(C)C (configuration not stated) | 7.37 | 7.18 | 
15 | CC(C)Oc1cccc(CC(=O)N2CCC(CCN3CCC(C(N)=O)(c4ccccc4)CC3)(c3ccc(Cl)c(Cl)c3)C2)c1 (configuration not stated) | 6.26 | 6.86 | 
16 | COc1ccc(C(=O)N2CCC(CCN3CCC(C(N)=O)(c4ccccc4)CC3)(c3ccc(Cl)c(Cl)c3)C2)cc1 (configuration not stated) | 7.93 | 6.20 | 
17 | COc1cc(C(=O)N2CCC(CCN3CCC(C(N)=O)(c4ccccc4)CC3)(c3ccc(Cl)c(Cl)c3)C2)cc(OC)c1OC (configuration not stated) | 7.73 | 8.21 | 
18 | COc1ccccc1CN[C@H]1C2CCN(CC2)[C@H]1C(c1ccccc1)c1ccccc1 [CP-96345] | < 5.00 |  | < 5.00
19 | CC(=O)NC1(c2ccccc2)CCN(CC[C@H](CN(C)C(=O)c2ccccc2)c2ccc(Cl)c(Cl)c2)CC1 [SAREDUTANT] | 9.36 | 6.23 | 6.68
